Data on one molecule can be found in patent US10233209B2, “Inhibitors of the farnesoid x receptor and uses in medicine” (The United States of America, as represented by the …, priority 2013, dated 2019).

Test [1] deals with T1, FXR (Mus musculus, UniProt Q60641).
T1 construct: Primary hepatocytes from Fxr^+/+ and Fxr^−/− mice were transfected with PGL4-Shp-TK firefly luciferase construct and the control plasmid phRL-SV40; endogenous in cells; host or cells: primary mouse hepatocytes (Fxr+/+; Fxr-/- as negative control)
T1 sequence (Q60641 1-488): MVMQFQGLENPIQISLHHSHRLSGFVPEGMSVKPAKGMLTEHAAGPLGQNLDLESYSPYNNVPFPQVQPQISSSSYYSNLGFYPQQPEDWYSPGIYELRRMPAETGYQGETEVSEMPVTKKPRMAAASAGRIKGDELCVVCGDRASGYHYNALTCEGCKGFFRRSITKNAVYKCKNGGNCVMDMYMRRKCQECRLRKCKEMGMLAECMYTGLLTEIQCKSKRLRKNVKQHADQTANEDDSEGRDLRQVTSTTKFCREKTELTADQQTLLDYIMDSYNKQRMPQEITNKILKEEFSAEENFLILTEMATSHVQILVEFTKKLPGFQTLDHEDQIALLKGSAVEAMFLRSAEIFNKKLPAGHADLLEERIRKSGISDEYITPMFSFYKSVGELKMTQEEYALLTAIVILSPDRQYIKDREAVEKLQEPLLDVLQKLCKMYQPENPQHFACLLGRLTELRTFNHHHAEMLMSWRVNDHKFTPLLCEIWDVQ
Kind of test: PGL4-Shp-TK luciferase assay in primary hepatocytes. The class given is cell-based. To be noted: primary hepatocytes from Fxr^+/+ mice; 100 μM TCA. The source says:
(§1) The PGL4-Shp-TK firefly luciferase construct and human Fxr expression plasmid were provided by Grace L. Guo of Rutgers University. The human Asbt expression plasmid was provided by Paul A. Dawson of Wake Forest University School of Medicine. The plasmids were transfected into cells using X-[…]™ HP DNA Transfection Reagent (Roche). The cells were lysed, and luciferase activities measured with a DUAL-LUCIFERASE™ assay kit (Promega). Firefly luciferase activity was normalized to Renilla luciferase activity.
Primary hepatocytes from Fxr^+/+ and Fxr^−/− mice were transfected with PGL4-Shp-TK firefly luciferase construct and the control plasmid phRL-SV40. After 24 h, the cells were treated with 100 μM taurocholic acid (TCA), TβMCA, or TβMCA with TCA. The cells were lysed, and luciferase activities measured as describe herein. The results are depicted in FIG. 1.

Test [2] addresses T1, FXR. The test can be described thus: FXR signaling in the ileum (Shp, Fgf15 mRNA). The class given is in vivo. To be noted: mice treated with antibiotic on HFD for three days; TCA and TβMCA 400 mg/kg each, oral. From the text: High-fat diet (HFD) (60% kcal consisting of fat) was purchased from Bioserv. […] Fxr^fl/fl and Fxr^ΔIE (Kim et al., J. Lipid Res. 48:2664-2672, 2007) mice were backcrossed with C57BL/6N mice for over 10 generations. For the antibiotic (the combination of bacitracin, neomycin, and streptomycin) study, male C57BL/6N mice from 6 weeks of age were fed a high-fat diet (“HFD) and administered 0.1% (w/v) of each compound (the combination of bacitracin, neomycin, and streptomycin) in the drinking water. […] For TβMCA in vivo, male C57BL/6N mice from 6 weeks of age were fed a HFD and treated with the antibiotics (0.1% of each compound of bacitracin, neomycin, and streptomycin combination) for 3 days. […] Cumulative food intake and TEEbal were measured for 1 week in vehicle and Gly-MCA-treated mice from 6 to 7 weeks of HFD. TEEbal was measured as previously described (Ravussin et al., Int. J. Obesity 37:399-403, 2013).
The mucosa of intestine was gently scraped and liver was taken and both were flash frozen in liquid nitrogen and stored at −80° C. until RNA was prepared. […] Measured mRNA levels were normalized to those of 18S ribosomal RNA and expressed as fold change relative to those of control group.

Test [3] concerns the target T2, human FXR (Homo sapiens, UniProt Q96RI1).
T2 construct: expressed in transfected cells; host or cells: HEK293T
T2 sequence (Q96RI1 262-486 limits assumed): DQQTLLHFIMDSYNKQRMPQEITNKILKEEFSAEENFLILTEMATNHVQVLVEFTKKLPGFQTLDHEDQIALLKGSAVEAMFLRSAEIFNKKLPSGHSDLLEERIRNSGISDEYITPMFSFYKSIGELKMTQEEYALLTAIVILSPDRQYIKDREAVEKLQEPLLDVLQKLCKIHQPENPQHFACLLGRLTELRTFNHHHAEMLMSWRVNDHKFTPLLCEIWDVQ
The test can be described thus: human FXR competition assay (GAL4-FXR chimeric receptor luciferase, HEK293T). As to conditions: in the presence of GW4064. In kind it is cell-based. As for the experimental part: Luciferase detection was conducted using the Dual Luciferase Reporter Assay kit (Promega Corp., Madison, Wis.) and a Tecan GeniosPro luminescent plate reader (Research Triangle Park, N.C.).
Luciferase detection was conducted using the Dual Luciferase Reporter Assay kit (Promega; Madison, Wis.) and a Tecan GeniosPro™ luminescent plate reader (Research Triangle Park, N.C.).

The target of test [4] is T3, human FXR (Homo sapiens, UniProt Q96RI1).
T3 construct: expressed in transfected cells; host or cells: Caco-2
T3 sequence (Q96RI1 1-486): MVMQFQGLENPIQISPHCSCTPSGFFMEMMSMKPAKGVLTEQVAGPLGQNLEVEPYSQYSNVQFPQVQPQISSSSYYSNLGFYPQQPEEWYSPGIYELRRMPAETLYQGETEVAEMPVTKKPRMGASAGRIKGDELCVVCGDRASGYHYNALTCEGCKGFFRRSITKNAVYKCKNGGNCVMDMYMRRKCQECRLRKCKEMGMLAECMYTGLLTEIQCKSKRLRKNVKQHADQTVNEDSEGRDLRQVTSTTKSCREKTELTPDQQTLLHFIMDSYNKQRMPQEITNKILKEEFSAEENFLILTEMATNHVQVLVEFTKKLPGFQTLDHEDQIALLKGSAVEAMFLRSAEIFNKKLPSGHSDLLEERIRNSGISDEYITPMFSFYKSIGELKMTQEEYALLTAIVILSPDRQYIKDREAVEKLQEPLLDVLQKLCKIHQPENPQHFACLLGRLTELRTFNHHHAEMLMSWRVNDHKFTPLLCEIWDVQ
Kind of test: PGL4-Shp-TK luciferase assay in Caco-2 cells transfected with human FXR and human ASBT. To be noted: 100 μM TCA. In kind it is cell-based.
From the text: as §1
Caco-2 cells were transfected with PGL4-Shp-TK firefly luciferase construct, the control plasmid phRL-SV40, and human FXR and human ASBT expression plasmids. After 24 h, the cells were treated with 100 μM TCA, TβMCA, or TβMCA with […] 100 μM TCA. The cells were lysed, and luciferase activities measured as describe herein. The results are depicted in FIG. 2.

Entries after “also recorded” stand apart in the source; their conditions may differ.

Consider `C[C@H](CCC(=O)NCCS(=O)(=O)O)[C@H]1CC[C@H]2[C@@H]3[C@@H](O)[C@@H](O)[C@@H]4C[C@H](O)CC[C@]4(C)[C@H]3CC[C@]12C` [TβMCA, tauro-β-muricholic acid], for which the “FXR activation by TCA (luciferase activity)” value is “antagonizes farnesoid X receptor (FXR) activation; also recorded: antagonized FXR activation by TCA” in test [1] and “antagonizes FXR activation; also recorded: antagonized FXR activation by TCA” in test [4]. The “Shp and Fgf15 induction by the FXR agonist TCA in the ileum” value in test [2] was “significantly blunted”. For the same molecule, in test [3], the “FXR activity induced by synthetic agonist GW4064 (luciferase, normalized to Renilla)” value was “inhibited FXR”.
